Laboratory results from US20150056166A1, “FLAVONE DERIVATIVES AND THEIR USE” (Twincore GmbH, priority 2012, published 2015).
Entries after “also recorded” stand apart in the source; their conditions may differ.

How the values were obtained:
Jc1 = assay: HCV virus assembly/release, intra- and extracellular core protein after Jc1 RNA transfection; assay type: cell-based; settings: 48 h after transfection, drugs added 4 h after transfection
Description: (A) Huh7-Lunet/CD81 cells were transfected with the subgenomic luciferase replicon depicted at the top. Drugs were added 4 h post transfection and the level of HCV RNA translation and RNA replication was quantified by luciferase assays 72 h post transfection. Mean values of three independent experiments each with quadruplicate measurements including the standard deviation are shown. (B) Cells were transfected with the Jc1 chimera depicted above and drugs were added 4 h later. HCV virus release in the presence or absence of given compounds was determined by quantification of intracellular and extracellular core protein levels using a core-specific ELISA. Mean values of three independent experiments with single measurements including the error range are given. (C) Huh7-Lunet/CD81 cells were inoculated with Luc-Jc1 reporter viruses prepared in the absence of drugs. BJ486K was added to the cells only prior to inoculation (black), only during inoculation (grey) or selectively directly after inoculation (white) as schematically depicted at the top. Infectivity was determined 72 h later by luciferase assays and compared to DMSO-treated controls. Mean values of three independent experiments each with quadruplicate measurements including the standard deviation are shown.
Huh7-Lunet/CD81 cells were transfected with Jc1 RNA and seeded on a 6-well plate. Compounds were added 4 h later. At 48 h after transfection, cell culture supernatant was harvested and used for measuring the extracellular core amount. Cells were washed once with PBS, scraped and centrifuged for 5 min at 1000×g. Cell pellets were resuspended in 500 μl fresh culture fluid and subjected to three cycles of freeze and thaw using liquid nitrogen and a 37° C. thermo block. Samples were than centrifuged at 10,000×g for 10 min to remove cell debris and the core amount was measured (intracellular core protein) using the […] […]
To determine whether BJ486K affects virus assembly or release we transfected Huh7-Lunet/CD81 cells with Jc1 RNA and quantified intra- and extracellular levels of core protein 48 h after transfection (FIG. 2B).

JcR-2a virus = assay: Chloroquine alone and with BJ486K, JcR-2a virus in Huh7.5 F-Luc cells; assay type: cell-based, HCV; settings: chloroquine alone
Description: Result from one experiment with triplicate measurements is given. (B) Combined effects of CQ on BJ486K activity (and vice versa) were analyzed by inoculation of Huh7.5 F-Luc cells with JcR-2a virus in the presence of given drugs and determination of luciferase activity 72 h later. Results from 3 independent experiments are given.

Huh7.5 F-Luc cells = assay: Cytotoxicity of chloroquine (FIG. 11A); settings: at the used concentrations
[1] = UV-visible spectrophotometric titration by MgCl2; assay type: physicochemical; settings: high excess of Mg(II); CH3CN/H2O (1:1 by volume)
Description: FIG. 17: (A) UV-visible spectrophotometric titration of BJ486K (newly re-prepared as XM148) by MgCl2 and (B) absorption electronic spectra of the flavone BJ486K and its magnesium(II) complex BJ486K-MgCl2. Solvent: CH3CN/H2O (1:1 by volume); T=25.0° C.; l=1 cm; [BJ486K]tot=7.63×10^−5 M; (1) [MgCl2]tot/[BJ486K]tot=0; (2) [MgCl2]tot/[BJ486K]tot=185.8. To ensure solubilisation of both the flavone BJ486K (newly re-prepared as XM148) and MgCl2, a mixed solvent made of 50% of water and 50% of CH3CN was used. A stock solution of XM148 ([…] in 10 mL of argon saturated CH3CN, [XM148]tot=9.54×10^−3 M) was prepared. 160 μL of the flavone stock solution in CH3CN was diluted in 1 mL and 840 μL of Ar-saturated water and CH3CN, respectively. The absorption spectrophotometric titration (200-800 nm) was carried out by successive addition of aliquots (10 μL) of a stock solution of MgCl2 freshly prepared in water (337.6 mg in 5 mL, [MgCl2]tot=7.09×10^−3 M). […]
FIG. 18: (A) UV-visible spectrophotometric titration of XM131 (final precursor B, Scheme 2) by MgCl2. […] Absorption spectra (200-800 nm) was recorded after each addition of aliquots (10 μL) of a stock solution of MgCl2 freshly prepared in water (337.6 mg in 5 mL, [MgCl2]tot=7.09×10^−3 M). […]

JcR-2a virus particles = assay: Antiviral activity against early steps of HCV cell entry, synchronized JcR-2a infection (FIG. 3); assay type: cell-based; settings: heparin 50 μg/ml, JS-81 2 μg/ml; inhibitor present 4 h
Description: FIG. 3: BJ486K inhibits cell entry post virus attachment. The design of the JcR-2a reporter virus construct is given at the top. Huh7-Lunet/CD81 cells were inoculated with concentrated JcR-2a particles at 4° C. for 60 minutes. Subsequently, unbound virus particles were washed away and cells were shifted to 37° C. to permit synchronized cell entry. According to the 8 experimental protocols depicted in the middle, various cell entry inhibitors including heparin (50 μg/ml), ITX5061 (10 μM), CD81-specific antibody JS-81 (2 μg/ml) and BJ486K (20 μM) were either present during inoculation (protocol 1) or were added at different time points after inoculation (protocols 2 to 8). In each case, inhibitor was present for 4 h (dashed line) and was then washed away. Efficiency of cell entry was determined 48 h post inoculation by determination of luciferase activity and is expressed relative to control infections conducted in the presence of solvent alone (DMSO). Mean values of three independent experiments each with quadruplicate measurements including the standard deviation are shown.
JcR-2a virus particles were incubated with Huh7-Lunet/CD81 cells seeded as described above for 1 h at 4° C. to synchronize cell entry. Various inhibitors including 50 μg/ml heparin (Sigma-Aldrich), CD81-specific antibody JS-81 (2 μg/ml; Becton Dickinson), ITX 5061 (10 μM) or BJ486K (20 μM), were added during virus inoculation (protocol 1) or at indicated time points after virus inoculation (protocol 2-8). After 4 h inhibitor treatment, medium was changed to fresh culture fluid without inhibitors and the cells were lysed 48 h after inoculation as described above. Efficiency of infection was determined by luciferase assay using a tube luminometer (Lumat LB9507, Berthold, Freiburg, Germany).
To resolve which step of HCV cell entry is inhibited by BJ486K, we assessed its antiviral activity when administered at different time points during the early phase of infection. To this end, Huh7-Lunet/CD81 cells were inoculated for one hour at 4° C. with a reporter virus prepared in the absence of drugs. […]

[2] = system: Luc-Jc1/E2/G451R reporter viruses; assay: Resistance test, Luc-Jc1 versus Luc-Jc1/E2/G451R reporter virus; assay type: cell-based, HCV; settings: Huh7-Lunet/CD81 cells, luciferase 72 h
Description: FIG. 4: BJ486K is not affected by viral resistance towards a SR-BI-targeting compound, inhibits HCV of different genotypes and prevents infection of primary human hepatocytes Huh7-Lunet/CD81 cells were inoculated with Luc-Jc1 or Luc-Jc1/E2/G451R reporter viruses in the presence of increasing doses of (A) ITX 5061 or (B) BJ486K. Cells were lysed 72 h later. Luciferase activity was determined and is expressed relative to control infections conducted in the presence of DMSO. Mean values of four independent experiments each with quadruplicate measurements including the standard deviation are shown. (C) Huh7-Lunet/CD81 cells were inoculated with genotype 1a, 1b, 2b, 3a, 4a, 5a and 6a chimeric reporter viruses in the presence of increasing doses of BJ486K. Luciferase activity was determined 72 h later and is expressed relative to infections in the presence of DMSO. Mean values of three independent experiments, each with triplicate measurements, are given. (D) Primary human hepatocytes were inoculated with Con1/C3 in the presence of DMSO or increasing concentrations of BJ486K. The inhibition of HCV infection was assessed by focus-formation assay and is expressed as % inhibition relative to DMSO-treated cells. Mean values of duplicate measurements including the error range are given. […]

O=C1C[C@@H](c2ccc(O)cc2)Oc2cc(O)cc(O)c21 [naringenin]
reduction of extracellular levels of core protein (Jc1): ca. 5 fold

C=C[C@H]1C[N@@]2CC[C@H]1C[C@@H]2[C@@H](O)c1ccnc2ccc(OC)cc12 [quinidine]
reduction of extracellular levels of core protein (Jc1): more than 100 fold

CCN(CC)CCCC(C)Nc1ccnc2cc(Cl)ccc12 (stereo not drawn) [Chloroquine, chloroquine]
anti-HCV effect (JcR-2a virus): dose-dependent anti-HCV effect | anti-HCV effect (JcR-2a virus; listed as chloroquine): dose-dependent inhibition of HCV | cytotoxicity (Huh7.5 F-Luc cells): no cytotoxicity detectable | cytotoxicity (Huh7.5 F-Luc cells; listed as chloroquine): no cytotoxicity

COc1ccc(-c2cc(=O)c3c(OC)c(O)c(OC)cc3o2)cc1 [XM131, 6-Hydroxy-5,7-dimethoxy-2-(4-methoxy-phenyl)-chromen-4-one]
Mg(II) complexation [1]: no absorption variation can be observed; also recorded: no Mg(II) complex is observed

heparin [reference compound]
inhibition of HCV entry by time of addition, in words (JcR-2a virus particles): only interfered with HCV infection when present already during inoculation

COc1c(NC(=O)C(=O)c2ccc(OCCN3CCOCC3)c3ccccc23)cc(C(C)(C)C)cc1NS(C)(=O)=O [ITX5061, reference compound]
antiviral activity against G451R mutant compared with wild type [2]: resistant
